Test results reported in ChEMBL document CHEMBL1177772, “Design and synthesis of benzoazepin-2-one analogs as allosteric binders targeting the PIF pocket of PDK1” (Bioorg Med Chem Lett, 2010).
pEC50: −log10 of the molar value. Residues, ends and D or L forms follow the SMILES beside them.

Target: T1, 3-phosphoinositide-dependent protein kinase 1 (Homo sapiens, UniProt O15530)
T1 sequence (O15530 whole entry): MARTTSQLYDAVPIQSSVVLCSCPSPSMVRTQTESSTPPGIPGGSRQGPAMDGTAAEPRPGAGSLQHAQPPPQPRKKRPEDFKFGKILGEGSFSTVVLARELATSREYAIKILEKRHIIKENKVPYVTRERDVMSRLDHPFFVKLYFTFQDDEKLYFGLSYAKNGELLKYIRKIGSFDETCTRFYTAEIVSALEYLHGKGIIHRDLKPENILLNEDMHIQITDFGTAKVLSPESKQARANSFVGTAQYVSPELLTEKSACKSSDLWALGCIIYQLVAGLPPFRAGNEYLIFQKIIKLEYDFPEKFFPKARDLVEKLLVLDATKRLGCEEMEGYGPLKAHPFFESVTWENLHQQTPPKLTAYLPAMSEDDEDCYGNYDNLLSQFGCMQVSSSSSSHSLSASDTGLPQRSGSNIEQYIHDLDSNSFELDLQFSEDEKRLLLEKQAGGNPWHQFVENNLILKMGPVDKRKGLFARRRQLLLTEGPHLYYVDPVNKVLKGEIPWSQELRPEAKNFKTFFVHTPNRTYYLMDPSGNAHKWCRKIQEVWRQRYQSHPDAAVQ
Test: Displacement of PIFtide from His-tagged PDK1 by HTRF assay
Conditions: for pEC50: read-out: EC50; call rule not given here

SMILES	EC50	pEC50
COC(=O)CN1C(=O)N(Cc2ccccc2)CCc2ccccc21	Not Active	–
COC(=O)CN1C(=O)C(Sc2ccccc2)CCc2ccccc21 (stereo unspecified)	Not Active	–
O=C(O)CN1C(=O)C(NS(=O)(=O)c2ccccc2)CCc2ccccc21 (stereo unspecified)	Not Active	–
O=C(O)CN1C(=O)C(Sc2c(Cl)cccc2Cl)CCc2ccccc21 (stereo unspecified)	–	4.35
COC(=O)CN1C(=O)C(NS(=O)(=O)c2ccccc2)CCc2ccccc21 (stereo unspecified)	Not Active	–
COC(=O)CN1C(=O)C(Oc2ccccc2)CCc2ccccc21 (stereo unspecified)	Not Active	–
CC[C@H](C)[C@H](NC(=O)[C@H](Cc1ccc(O)cc1)NC(=O)[C@H](CC(=O)O)NC(=O)[C@H](Cc1ccccc1)NC(=O)[C@H](CC(=O)O)NC(=O)[C@H](CCCNC(=N)N)NC(=O)[C@H](Cc1ccccc1)NC(=O)[C@H](CCSC)NC(=O)[C@H](CCC(=O)O)NC(=O)[C@@H](N)CCC(N)=O)C(=O)N[C@@H](C)C(=O)N[C@@H](CC(=O)O)C(=O)N[C@@H](Cc1c[nH]c2ccccc12)C(=O)O (H-QEMFRDFDYIADW-OH)	–	5.00
COc1ccc(SC2CCc3ccccc3N(CC(=O)O)C2=O)cc1 (stereo unspecified)	–	4.28
COC(=O)CN1C(=O)C(Nc2ccccc2)CCc2ccccc21 (stereo unspecified)	Not Active	–

More lines, now with the values ahead:

EC50	pEC50	SMILES
Not Active	–	O=C(O)CN1C(=O)C(Oc2ccccc2)CCc2ccccc21 (stereo unspecified)
–	3.88	O=C(O)CSC(CC(=O)c1ccc(Cl)cc1)c1ccccc1 (stereo unspecified)
–	3.73	O=C(O)CN1C(=O)C(Sc2ccc(C(=O)O)cc2)CCc2ccccc21 (stereo unspecified)
–	4.64	O=C(O)CN1C(=O)C(Sc2ccc(Cl)cc2)CCc2ccccc21 (stereo unspecified)
Not Active	–	O=C(O)CN1C(=O)C(OC(=O)c2ccccc2)CCc2ccccc21 (stereo unspecified)
Not Active	–	O=C(O)CN1C(=O)C(NC(=O)c2ccccc2)CCc2ccccc21 (stereo unspecified)
–	4.12	O=C(O)CN1C(=O)C(Sc2ccc(Cl)cc2Cl)CCc2ccccc21 (stereo unspecified)
Not Active	–	COC(=O)CN1C(=O)C(NC(=O)c2ccccc2)CCc2ccccc21 (stereo unspecified)
Not Active	–	COC(=O)CN1C(=O)C(OC(=O)c2ccccc2)CCc2ccccc21 (stereo unspecified)
–	4.00	O=C(O)CN1C(=O)C(Sc2ccccc2)CCc2ccccc21 (stereo unspecified)
Not Active	–	O=C(O)CN1C(=O)N(Cc2ccccc2)CCc2ccccc21
–	3.05	O=C(O)CN1C(=O)C(Nc2ccccc2)CCc2ccccc21 (stereo unspecified)
